Experimental data: ChEMBL document CHEMBL1143343, “Cooperative alkylation of double-strand human telomere repeat sequences by PI polyamides with 11-base-pair recognition based on a heterotrimeric design” (Bioorg Med Chem, 2009)
pIC50: −log10 of the molar value. Active and inactive are the calls of the source. The calls are words filed in the database; no cut-off is given here.

What was measured:
Jurkat [1] = experiment: Cytotoxicity against human Jurkat cells after 48 hrs by WST-8 assay; type: functional, cell-based
Calf thymus DNA [2] = experiment: Binding affinity to human telomeric repeat sequence in 219 bp calf thymus DNA fragment assessed as DNA alkylating activity at 20 to 500 nM after 12 hrs by PAGE; type: nucleic-acid assay
Calf thymus DNA [3] = experiment: (§1) Binding affinity to human telomeric repeat sequence in 219 bp calf thymus DNA fragment assessed as DNA alkylating activity at 200 nM after 12 hrs by PAGE in presence of {3-[(4-{[4-({4-[(4-Acetylamino-1-methyl-1H-pyrrole-2-carbonyl)-amino]-1-methyl-1H-pyrrole-2-carbonyl}-amino)-1-methyl-1H-pyrrole-2-carbonyl]-amino}-1-methyl-1H-pyrrole-2-carbonyl)-amino]-propyl}-dimethyl-ammonium; type: nucleic-acid assay
Calf thymus DNA [4] = experiment: as §1, with “to site 2” for “to”, “5'GGTTAGGGTTA3'” for “repeat”, “20 to 500” for “200”; type: nucleic-acid assay
Calf thymus DNA [5] = experiment: as §1, with “to site 3” for “to”, “5'GGTTAGGGTTA3'” for “repeat”, “20 to 500” for “200”; type: nucleic-acid assay
Calf thymus DNA [6] = experiment: Binding affinity to human telomeric repeat sequence in 219 bp calf thymus DNA fragment assessed as DNA alkylating activity at 20 to 500 nM after 12 hrs by PAGE in presence of 3-(4-(4-(4-(3-(3-(4-(4-(4-(4-acetamido-1-methyl-1H-pyrrole-2-carboxamido)-1-methyl-1H-pyrrole-2-carboxamido)-1-methyl-1H-pyrrole-2-carboxamido)-1-methyl-1H-pyrrole-2-carboxamido)propanamido)propanamido)-1-methyl-1H-pyrrole-2-carboxamido)-1-methyl-1H-pyrrole-2-carboxamido)-1-methyl-1H-pyrrole-2-carboxamido)-N,N-dimethylpropan-1-aminium; type: nucleic-acid assay
Jurkat [7] = experiment: Cytotoxicity against human Jurkat cells after 48 hrs by WST-8 assay in presence of 10 uM {3-[(4-{[4-({4-[(4-Acetylamino-1-methyl-1H-pyrrole-2-carbonyl)-amino]-1-methyl-1H-pyrrole-2-carbonyl}-amino)-1-methyl-1H-pyrrole-2-carbonyl]-amino}-1-methyl-1H-pyrrole-2-carbonyl)-amino]-propyl}-dimethyl-ammonium pretreated 24 hrs before compound addition; type: functional, cell-based
Calf thymus DNA [8] = experiment: Binding affinity to site 4 human telomeric 5'GGTTAGGGTTA3' sequence in 219 bp calf thymus DNA fragment assessed as DNA alkylating activity at 20 to 500 nM after 12 hrs by PAGE in presence of distamycin A; type: nucleic-acid assay
Calf thymus DNA [9] = experiment: Binding affinity to human telomeric repeat sequence in 219 bp calf thymus DNA fragment assessed as DNA alkylating activity at 200 nM after 12 hrs by PAGE in presence of distamycin A; type: nucleic-acid assay
Jurkat [10] = experiment: Cytotoxicity against human Jurkat cells after 48 hrs by WST-8 assay in presence of 10 uM distamycin A pretreated 24 hrs before compound addition; type: functional, cell-based
Calf thymus DNA [11] = experiment: Binding affinity to site 3 human telomeric 5'GGTTAGGGTTA3' sequence in 219 bp calf thymus DNA fragment assessed as DNA alkylating activity at 20 to 500 nM after 12 hrs by PAGE in presence of distamycin A; type: nucleic-acid assay
Calf thymus DNA [12] = experiment: Binding affinity to site 2 human telomeric 5'GGTTAGGGTTA3' sequence in 219 bp calf thymus DNA fragment assessed as DNA alkylating activity at 20 to 500 nM after 12 hrs by PAGE in presence of distamycin A; type: nucleic-acid assay
Calf thymus DNA [13] = experiment: Binding affinity to site 4 human telomeric 5'GGTTAGGGTTA3' sequence in 219 bp calf thymus DNA fragment assessed as DNA alkylating activity at 20 to 500 nM after 12 hrs by PAGE in presence of {3-[(4-{[4-({4-[(4-Acetylamino-1-methyl-1H-pyrrole-2-carbonyl)-amino]-1-methyl-1H-pyrrole-2-carbonyl}-amino)-1-methyl-1H-pyrrole-2-carbonyl]-amino}-1-methyl-1H-pyrrole-2-carbonyl)-amino]-propyl}-dimethyl-ammonium; type: nucleic-acid assay

- Activity (Calf thymus DNA [2]): inactive
- Activity (Calf thymus DNA [3]): Active
- Activity (Calf thymus DNA [4]): Active
- Activity (Calf thymus DNA [5]): Active
- Activity (Calf thymus DNA [6]): Active
- Activity (Calf thymus DNA [8]): Active
- Activity (Calf thymus DNA [9]): Active
- Activity (Calf thymus DNA [11]): Active
- Activity (Calf thymus DNA [12]): Active
- Activity (Calf thymus DNA [13]): Active
Structure (SMILES): CC(=O)Nc1cn(C)c(C(=O)Nc2cn(C)c(C(=O)Nc3cn(C)c(C(=O)NCCC(=O)NCCC(=O)Nc4cn(C)c(C(=O)Nc5cn(C)c(C(=O)Nc6cn(C)c(C(=O)Nc7ccc8[nH]c(C(=O)N9CC(CCl)c%10c9cc(O)c9ccccc%109)cc8c7)n6)n5)n4)n3)n2)n1 (stereo not drawn)
- pIC50 (Jurkat [1]): 7.00
- pIC50 (Jurkat [7]): 7.10
- pIC50 (Jurkat [10]): 7.49
